Laboratory results as given in patent US4191698A, “Tricyclopentyltin fluoride” (priority 1977, dated 1980).

Experiments:
Assay type in all cases: in vivo
wheat [1] = assay: Phytotoxicity to host plant in wheat leaf rust test (rating 0-2); parameters: key: 0: indicates no phytotoxicity; 1: indicates that the degree of phytotoxicity was sufficient to make the plant commercially worthless; 2: indicates that the plant was killed; conditions: 300 ppm
Method: (§1) The efficacy of tricyclopentyltin fluoride as a control agent for three different plant fungi (grape downy mildew, apple powdery mildew and wheat leaf rust) was evaluated and compared with the performance of several other tricyclopentyltin compounds. The results of this evaluation are disclosed in the following tables 2, 3 and 4. The phytotoxicity of the various compounds tested was also evaluated at various concentration levels. […] Quantitative ratings for phytotoxicity are given in each of the first three tables. A rating of 0 indicates no phytotoxicity.
(§2) Host plants, (grape, wheat or apple, depending upon the fungus) are sprayed with a water suspension of the test compound and then inoculated with the pathogen. A number of control plants that have not been sprayed are also inoculated. After disease symptoms are well developed on the untreated control plants the test plants are graded for disease control.

wheat [2] = assay: Phytotoxicity applied to wheat (scale 0-5); parameters: key: 0: no phytotoxicity; 1: very slight injury, the minimum that could be observed; 2: less than 10% of leaf surface injured; 3: 10-50% of leaf surface injured; 4: 50-90% of leaf surface injured; 5: plant killed
Method: (§3) The phytotoxicity of a number of tricyclopentyltin compounds and triphenyltin hydroxide on grape vines, wheat and barley was evaluated quantitatively using the following scale:
(§4) If the rating was considered to be somewhere between two integers based on observations of other plants, the lower integer followed by "0.5" was employed as the rating.

[3] = system: Grape Downy Mildew (Plasmopara viticola); assay: Grape downy mildew control (Procedure 3)
From the text: (§5) PROCEDURE 3--Employed Using Grape Downy Mildew (Plasmopara viticola), Wheat Leaf Rust (Puccinia recondita) and Apple Powdery Mildew (Podosphaera leucotricha)
as §2

[4] = system: Apple Powdery Mildew (Podosphaera leucotricha); assay: Apple powdery mildew control (Procedure 3)
From the text: as §5, §2

[5] = system: Wheat Leaf Rust (Puccinia recondita); assay: Wheat leaf rust control (Procedure 3); conditions: 300 ppm
From the text: as §5, §2

grape = assay: Phytotoxicity to host plant in grape downy mildew test (rating 0-2); parameters: key to Phytotoxicity: 0: indicates no phytotoxicity; 1: indicates that the degree of phytotoxicity was sufficient to make the plant commercially worthless; 2: indicates that the plant was killed; conditions: for Phytotoxicity: rating 0-2
Method: as §1, §2

Grape Vines = assay: Phytotoxicity applied to grape vines (scale 0-5); parameters: key to Phytotoxicity: 0: no phytotoxicity; 1: very slight injury, the minimum that could be observed; 2: less than 10% of leaf surface injured; 3: 10-50% of leaf surface injured; 4: 50-90% of leaf surface injured; 5: plant killed; conditions: for Phytotoxicity: scale 0-5
Method: as §3, §4

Barley = assay: Phytotoxicity applied to barley (scale 0-5); parameters: key: 0: no phytotoxicity; 1: very slight injury, the minimum that could be observed; 2: less than 10% of leaf surface injured; 3: 10-50% of leaf surface injured; 4: 50-90% of leaf surface injured; 5: plant killed
Method: as §3, §4

| Molecule | Phytotoxicity (wheat [1]) | Phytotoxicity (wheat [2]; 75 ppm) | Phytotoxicity (wheat [2]; 300 ppm) | Phytotoxicity (wheat [2]; 1200 ppm) | Phytotoxicity (grape; 75 ppm) | Phytotoxicity (grape; 300 ppm) | Phytotoxicity (Grape Vines; 75 ppm) | Phytotoxicity (Grape Vines; 300 ppm) | Phytotoxicity (Grape Vines; 1200 ppm) | Phytotoxicity (Barley; 38 ppm) | Phytotoxicity (Barley; 150 ppm) | Phytotoxicity (Barley; 600 ppm) | % Control ([4]; 75 ppm) [%] | other results |
| --- | --- | --- | --- | --- | --- | --- | --- | --- | --- | --- | --- | --- | --- | --- |
| [Cl][Sn]([CH]1CCCC1)([CH]1CCCC1)[CH]1CCCC1 [Tricyclopentyltin chloride] | 2 | 1 | 3 (10-50% of leaf surface injured) | 5 |  |  |  |  |  |  |  |  |  |  |
| [F][Sn]([CH]1CCCC1)([CH]1CCCC1)[CH]1CCCC1 [Tricyclopentyltin fluoride] | 0 | 0 | 0 | 1.5 | 0 | 0 | 0 | 1.5 | 3.5 | 0 | 1 | 2 (less than 10% of leaf surface injured) |  | control rating (comparison in words) ([3]; 75 ppm): higher than the two other tricyclopentyltin compounds; activity against representative plant fungi (comparison in words) ([3]; representative plant fungi of Tables 2-4): highest activity against representative plant fungi of all the compounds tested; efficacy (comparison in words) ([4]; 75 ppm): considerably higher than the other compounds tested; control of wheat leaf rust (in words) [5]: effectively controlled wheat leaf rust; phytotoxic effects (in words) (grape; 300 ppm): did not produce any phytotoxic effects; damage to plants (comparison in words) (Grape Vines; Tables 5-7: grape vines, wheat and barley): least damaging to the plants |
| [OH][Sn]([CH]1CCCC1)([CH]1CCCC1)[CH]1CCCC1 [Tricyclopentyltin hydroxide] | 0 | 0 | 1 | 2.5 | 0 | 1 | 1 | 2.5 | 4.5 | 1 | 2 (less than 10% of leaf surface injured) | 3.5 |  |  |
| [OH][Sn]([c]1ccccc1)([c]1ccccc1)[c]1ccccc1 [Triphenyltin hydroxide] | 0 |  |  |  | 1 | 1 | 2.5 | 3.5 | 5 | 1 | 3 (10-50% of leaf surface injured) | 4 (50-90% of leaf surface injured) | 25 | % Control ([3]; 75 ppm): 95%; control rating (comparison in words) ([3]; 75 ppm): higher control rating at this level; % Control ([3]; 300 ppm): 100%; % Control [5]: 25%; phytotoxicity (in words) (grape; 75 ppm): too phytotoxic to be commercially useful |
| Tricyclopentyltin acetate |  |  |  |  |  |  | 2 (less than 10% of leaf surface injured) | 4 (50-90% of leaf surface injured) | 5 | 1 | 2 (less than 10% of leaf surface injured) | 3.5 | 25 |  |
| Tricyclopentyltin benzoate |  |  |  |  | 0 | 1 |  |  |  |  |  |  |  | % Control ([3]; 75 ppm): 50%; % Control ([3]; 300 ppm): 75% |
| Tricyclopentyltin phenoxide |  |  |  |  |  |  |  |  |  |  |  |  | 50 | % Control ([4]; 300 ppm): 83% |
